Test results published in US20120157452A1, “1H-PYRAZOLO[3,4-B] PYRIDINE COMPOUNDS FOR INHIBITING RAF KINASE” (GENENTECH, INC., priority 2009, published 2012).

What was measured:
[1] = biological target: T1, V600E full-length B-Raf (Homo sapiens, UniProt P15056, V600E); test: B-Raf IC50 assay: incorporation of radio labeled phosphate from [γ-33P]ATP into FSBA-modified wild-type MEK; assay type: biochemical
T1 construct: made in house; host or cells: Sf9 insect cells (baculovirus)
Description: Determining the activity of Raf in the sample is possible by a number of direct and indirect detection methods (US 2004/0082014). Activity of human recombinant B-Raf protein may be assessed in vitro by assay of the incorporation of radio labeled phosphate to recombinant MAP kinase (MEK), a known physiologic substrate of B-Raf, according to US 2004/0127496 and WO 03/022840. The activity/inhibition of V600E full-length B-Raf was estimated by measuring the incorporation of radio labeled phosphate from [γ-^33]ATP into FSBA-modified wild-type MEK (see Biological Example 1).
Activity of human recombinant B-Raf protein may be assessed in vitro by assay of the incorporation of radio labeled phosphate to recombinant MAP kinase (MEK), a known physiologic substrate of B-Raf, according to US 2004/0127496 and WO 03/022840. Catalytically active human recombinant B-Raf protein is obtained by purification from sf9 insect cells infected with a human B-Raf recombinant baculovirus expression vector.
The activity/inhibition of V600E full-length B-Raf was estimated by measuring the incorporation of radio labeled phosphate from [γ-^33]ATP into FSBA-modified wild-type MEK. The 30-μL, assay mixtures contained 25 mM Na Pipes, pH 7.2, 100 mM KCl, 10 mM MgCl2, 5 mM β-glycerophosphate, 100 μM Na Vanadate, 4 μM ATP, 500 nCi [γ-^33P]ATP, 1 μM FSBA-MEK and 20 nM V600E full-length B-Raf. Incubations were carried out at 22° C. in a Costar 3365 plate (Corning). Prior to the assay, the B-Raf and FSBA-MEK were preincubated together in assay buffer at 1.5× (20 μL of 30 nM and 1.5 μM, respectively) for 15 minutes, and the assay was initiated by the addition of 10 μL of […]. Following the 60-minute incubation, the assay mixtures were quenched by the addition of 100 μL of 25% TCA, the plate was mixed on a rotary shaker for 1 minute, and the product was captured on a Perkin-Elmer GF/B filter plate using a Tomtec Mach III Harvester. After sealing the bottom of the plate, 35 μL of Bio-Safe II (Research Products International) scintillation cocktail were added to each well and the plate was top-sealed and counted in a Topcount NXT (Packard).

[2] = system: LOX xenografts; test: Tumor Growth Inhibition (LOX) in nude mice with subcutaneous LOX xenografts; assay type: in vivo; conditions: female nude mice, subcutaneous LOX xenograft, 30 mg/kg PO on days 1, 2, 3 and 4
Experimental: Female nude mice were implanted subcutaneously on the right flank with approximately 3.5×10^6 LOX cells in 100 μL PBS. Five to seven days later, tumors were measured and mice were randomized into groups of six with average tumor volume in each group of approximately 200 mm^3. Examples 30 and 42 were dissolved in 80% PEG400/20% ethanol before dosing, and administered PO at a volume of 5 mL/kg. Dosing was vehicle alone on days 1, 2, 3 and 4; and Examples 30 and 42 at 30 mg/kg on days 1, 2, 3 and 4 Animal weights and tumor volumes were measured using electronic calipers on […]. Tumor volume was calculated using the formula: volume=(width^2×length)/2. Each Example was run in a separate study with its own vehicle comparison.

[3] = 4 μM ATP, 60-minute incubation, representative data of multiple tests

T1 sequence (P15056 whole entry V600E): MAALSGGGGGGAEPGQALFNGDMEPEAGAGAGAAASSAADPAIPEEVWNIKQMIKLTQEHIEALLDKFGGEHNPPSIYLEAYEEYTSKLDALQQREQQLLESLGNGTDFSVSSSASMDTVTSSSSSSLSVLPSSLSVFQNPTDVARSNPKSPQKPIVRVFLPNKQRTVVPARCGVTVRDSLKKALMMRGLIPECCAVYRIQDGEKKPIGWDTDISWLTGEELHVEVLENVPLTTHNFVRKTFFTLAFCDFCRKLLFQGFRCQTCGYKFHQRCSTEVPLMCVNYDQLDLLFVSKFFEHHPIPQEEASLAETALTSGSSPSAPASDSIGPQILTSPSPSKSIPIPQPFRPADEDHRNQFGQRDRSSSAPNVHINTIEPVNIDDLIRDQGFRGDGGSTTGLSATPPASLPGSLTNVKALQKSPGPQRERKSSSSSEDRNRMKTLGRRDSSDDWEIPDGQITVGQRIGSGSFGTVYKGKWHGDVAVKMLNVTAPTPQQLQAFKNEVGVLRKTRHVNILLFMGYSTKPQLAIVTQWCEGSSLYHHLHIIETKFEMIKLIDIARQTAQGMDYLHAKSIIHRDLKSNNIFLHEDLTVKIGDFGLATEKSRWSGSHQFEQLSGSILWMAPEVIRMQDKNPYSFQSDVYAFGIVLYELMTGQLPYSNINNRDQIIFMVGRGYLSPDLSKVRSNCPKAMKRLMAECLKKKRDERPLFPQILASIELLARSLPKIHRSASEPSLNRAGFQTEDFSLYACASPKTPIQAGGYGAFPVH

Row | Structure (SMILES) | IC50 [1, 3] [nM] | IC50 ([1]; bound stated) [nM] | Tumor Volume (mm^3) Day 1 [2] [mm^3] | Tumor Volume (mm^3) Day 3 [2] [mm^3] | Tumor Volume (mm^3) Day 5 [2] [mm^3]
1 | COc1n[nH]c2ncc(NC(=O)c3c(Cl)ccc(OCc4ccc(Cl)cc4)c3F)cc12 [Example 30, 6-chloro-3-(4-chlorobenzyloxy)-2-fluoro-N-(3-methoxy-1H-pyrazolo[3,4-b]pyridin-5-yl)benzamide] | 0.74 | < 100 | 221.68 | 204.49 | 168.94
2 | COc1n[nH]c2ncc(NC(=O)c3c(Cl)ccc(OCc4ccc(C(F)(F)F)cn4)c3F)cc12 [Example 42, 6-chloro-2-fluoro-N-(3-methoxy-1H-pyrazolo[3,4-b]pyridin-5-yl)-3-((5-(trifluoromethyl)pyridin-2-yl)methoxy)benzamide] | 1.76 | < 100 | 191.22 | 214.61 | 161.55
3 | COc1n[nH]c2ncc(NC(=O)c3c(Cl)ccc(OCc4ccn(C)n4)c3F)cc12 [Example 58, 6-chloro-2-fluoro-N-(3-methoxy-1H-pyrazolo[3,4-b]pyridin-5-yl)-3-((1-methyl-1H-pyrazolo-3-yl)methoxy)benzamide] | 37.1 | < 100 | – | – | –
4 | COc1n[nH]c2ncc(NC(=O)c3c(Cl)ccc(OCc4csc(C)n4)c3F)cc12 [Example 59, 6-chloro-2-fluoro-N-(3-methoxy-1H-pyrazolo[3,4-b]pyridin-5-yl)-3-((2-methylthiazol-4-yl)methoxy)benzamide] | 10.6 | < 100 | – | – | –
5 | COc1n[nH]c2ncc(NC(=O)c3c(Cl)ccc(OCc4ccccc4Cl)c3F)cc12 [Example 60, 6-chloro-3-(2-chlorobenzyloxy)-2-fluoro-N-(3-methoxy-1H-pyrazolo[3,4-b]pyridin-5-yl)benzamide] | 1.28 | < 100 | – | – | –
6 | COc1n[nH]c2ncc(NC(=O)c3c(Cl)ccc(OCc4cc(C)on4)c3F)cc12 [Example 61, 6-chloro-2-fluoro-N-(3-methoxy-1H-pyrazolo[3,4-b]pyridin-5-yl)-3-((5-methylisoxazol-3-yl)methoxy)benzamide] | 80.1 | < 100 | – | – | –
7 | COc1n[nH]c2ncc(NC(=O)c3c(Cl)ccc(OCc4ccc(F)cc4F)c3F)cc12 [Example 62, 6-chloro-3-(2,4-difluorobenzyloxy)-2-fluoro-N-(3-methoxy-1H-pyrazolo[3,4-b]pyridin-5-yl)benzamide] | 1.45 | < 100 | – | – | –
8 | COc1n[nH]c2ncc(NC(=O)c3c(Cl)ccc(OCc4ccc5c(c4)OCO5)c3F)cc12 [Example 63, 3-(benzo[d][1,3]dioxol-5-ylmethoxy)-6-chloro-2-fluoro-N-(3-methoxy-1H-pyrazolo[3,4-b]pyridin-5-yl)benzamide] | 1.71 | < 100 | – | – | –
9 | COc1n[nH]c2ncc(NC(=O)c3c(Cl)ccc(OCc4cccc(CN5CCOCC5)c4)c3F)cc12 [Example 64, 6-chloro-2-fluoro-N-(3-methoxy-1H-pyrazolo[3,4-b]pyridin-5-yl)-3-(3-(morpholinomethyl)benzyloxy)benzamide] | 9.29 | < 100 | – | – | –
10 | COc1n[nH]c2ncc(NC(=O)c3c(Cl)ccc(OCc4ccc5c(c4)CCO5)c3F)cc12 [Example 65] | 0.63 | < 100 | – | – | –
11 | COc1n[nH]c2ncc(NC(=O)c3c(Cl)ccc(OCc4ccc(Cl)cc4F)c3F)cc12 [Example 66, 6-chloro-3-(4-chloro-2-fluorobenzyloxy)-2-fluoro-N-(3-methoxy-1H-pyrazolo[3,4-b]pyridin-5-yl)benzamide] | 1.5 | < 100 | – | – | –
12 | COc1n[nH]c2ncc(NC(=O)c3c(Cl)ccc(OC(C)c4ccccc4)c3F)cc12 (stereo not drawn) [Example 67, 6-chloro-2-fluoro-N-(3-methoxy-1H-pyrazolo[3,4-b]pyridin-5-yl)-3-(1-phenylethoxy)benzamide] | 61 | < 100 | – | – | –
13 | COc1n[nH]c2ncc(NC(=O)c3c(Cl)ccc(OCc4cncnc4)c3F)cc12 [Example 68, 6-chloro-2-fluoro-N-(3-methoxy-1H-pyrazolo[3,4-b]pyridin-5-yl)-3-(pyrimidin-5-ylmethoxy)benzamide] | 658 | – | – | – | –
14 | COc1n[nH]c2ncc(NC(=O)c3c(Cl)ccc(OCc4ccc5ncccc5c4)c3F)cc12 [Example 69, 6-chloro-2-fluoro-N-(3-methoxy-1H-pyrazolo[3,4-b]pyridin-5-yl)-3-(quinolin-6-ylmethoxy)benzamide] | 1.66 | < 100 | – | – | –
15 | COc1n[nH]c2ncc(NC(=O)c3c(Cl)ccc(OCc4cnn(C)c4)c3F)cc12 [Example 70, 6-chloro-2-fluoro-N-(3-methoxy-1H-pyrazolo[3,4-b]pyridin-5-yl)-3-((1-methyl-1H-pyrazol-4-yl)methoxy)benzamide] | 25.7 | < 100 | – | – | –
16 | COc1n[nH]c2ncc(NC(=O)c3c(C)ccc(OCc4ccc(F)cc4)c3F)cc12 [Example 71, 2-fluoro-3-(4-fluorobenzyloxy)-N-(3-methoxy-1H-pyrazolo[3,4-b]pyridin-5-yl)-6-methylbenzamide] | 0.66 | < 100 | – | – | –
17 | COc1n[nH]c2ncc(NC(=O)c3c(C)ccc(OCc4ccc(Cl)cc4)c3F)cc12 [Example 72, 3-(4-chlorobenzyloxy)-2-fluoro-N-(3-methoxy-1H-pyrazolo[3,4-b]pyridin-5-yl)-6-methylbenzamide] | 0.4 | < 100 | – | – | –
18 | COc1n[nH]c2ncc(NC(=O)c3c(C)ccc(OCc4ccc(C(F)(F)F)cc4)c3F)cc12 [Example 73, 2-fluoro-N-(3-methoxy-1H-pyrazolo[3,4-b]pyridin-5-yl)-6-methyl-3-(4-(trifluoromethyl)benzyloxy)benzamide] | 0.86 | < 100 | – | – | –
19 | COc1n[nH]c2ncc(NC(=O)c3c(C)ccc(OCc4ccc(Cl)cn4)c3F)cc12 [Example 74, 3-((5-chloropyridin-2-yl)methoxy)-2-fluoro-N-(3-methoxy-1H-pyrazolo[3,4-b]pyridin-5-yl)-6-methylbenzamide] | 0.51 | < 100 | – | – | –
20 | COc1n[nH]c2ncc(NC(=O)c3c(Cl)ccc(OCc4ccc(CN5CCOCC5)cc4)c3F)cc12 [Example 75, 6-chloro-2-fluoro-N-(3-methoxy-1H-pyrazolo[3,4-b]pyridin-5-yl)-3-(4-(morpholinomethyl)benzyloxy)benzamide] | 139 | < 500 | – | – | –
21 | COc1n[nH]c2ncc(NC(=O)c3c(Cl)ccc(OCc4cccc5[nH]ccc45)c3F)cc12 [Example 76, 3-((1H-indol-4-yl)methoxy)-6-chloro-2-fluoro-N-(3-methoxy-1H-pyrazolo[3,4-b]pyridin-5-yl)benzamide] | 13 | < 100 | – | – | –
22 | COc1n[nH]c2ncc(NC(=O)c3c(Cl)ccc(OCc4ccc(C5CC5)cc4)c3F)cc12 [Example 77, 6-chloro-3-(4-cyclo-propylbenzyloxy)-2-fluoro-N-(3-methoxy-1H-pyrazolo[3,4-b]pyridin-5-yl)benzamide] | 0.56 | < 100 | – | – | –
23 | CC(=O)Nc1n[nH]c2ncc(NC(=O)c3c(Cl)ccc(OCc4ccccc4)c3F)cc12 [Example 78, N-(3-acetamido-1H-pyrazolo[3,4-b]pyridin-5-yl)-3-(benzyloxy)-6-chloro-2-fluorobenzamide] | 5.19 | < 100 | – | – | –
